Results taken from US9127044B2, “Cyclic depsipeptides” (NOVARTIS AG, priority 2007, dated 2015).
Like-named read-outs stand apart in the source and are kept apart here.

Experiments:
[1] = target: human kallikrein 7 (Homo sapiens, UniProt P49862); assay: Kallikrein-7 inhibitory activity in vitro (fluorescence-quenched substrate); assay type: biochemical
Protocol: (§1) IC50 for human kallikrein can be measured using the fluorescence-quenched substrate Ac-Glu-Asp(EDANS)-Lys-Pro-Ale-Leu-Phe^Arg-Leu-Gly-Lys(DABCYL)-Glu-NH2 (where ^ indicates the scissile bond, identified by MS analysis) which can be purchased from Biosyntan (Berlin, Germany). Enzymatic reactions are conducted in 50 mM sodium citrate buffer at pH 5.6 containing 150 mM NaCl and 0.05% (w/v) CHAPS. For the determination of IC50 values the assay is performed at room temperature in 384-well plates. All final assay volumes are 30 μl. Test compounds are dissolved in 90% (v/v) DMSO/water and diluted in water (containing 0.05% (w/v) CHAPS) to 3-times the desired assay concentration. The 11 final compound concentrations are: 0.3 nM, 1 nM, 3 nM, 10 nM, 30 nM, 100 nM, 300 nM, 1 μM, 3 μM, 10 μM and 30 μM. For each assay, 10 μl water/CHAPS (±test compound) are added per well, followed by 10 μl protease solution (diluted with 1.5× assay buffer). The protease concentration in final assay solution is 0.2 nM (according to the enzyme concentrations determined by the Bradford method). After 1 hour of incubation at room temperature, the reaction is started by addition of 10 μl substrate solution (substrate dissolved in 1.5× assay buffer, final concentration is 2 μM). […] The IC50 value is calculated from the plot of percentage of inhibition vs. inhibitor concentration using non-linear regression analysis software (XLfit, Vers. 4.0; ID Business Solution Ltd., Guildford, Surrey, UK).
The fluorescence-quenched substrate Ac-Glu-Asp(EDANS)-Lys-Pro-Ale-Leu-Phe^Arg-Leu-Gly-Lys(DABCYL)-Glu-NH2 (where ^ indicates the scissile bond, identified by MS analysis) is purchased from Biosyntan (Berlin, Germany) and kept as a 5 mM stock solution in DMSO at −20° C. All other chemicals are of analytical grade.
Enzymatic reactions are conducted in 50 mM sodium citrate buffer at pH 5.6 containing 150 mM NaCl and 0.05% (w/v) CHAPS.
All protein and peptide containing solutions are handled in siliconized tubes (Life Systems Design, Merenschwand, Switzerland). The compound solutions as well as the enzyme and the substrate solutions are transferred to the 384-well plates (black Cliniplate; cat. no. 95040020 Labsystems Oy, Finland) by means of a CyBi-Well 96-channel pipettor (CyBio AG, Jena, Germany).
(§2) For fluorescence intensity (FI) measurements an Ultra Evolution reader (TECAN, Maennedorf, Switzerland) is used. The instrument is equipped with a combination of a 350 nm (20 nm bandwidth) and a 500 nm (25 nm bandwidth) bandpass filter for fluorescence excitation and emission acquisition, respectively. To increase the signal:background ratio, an appropriate dichroic mirror is employed. The optical filters and the dichroic mirror are purchased from TECAN. The fluorophores in each well are excited by three flashes per measurement.
as §1, with “For” for “IC50 for human kallikrein can be measured using the fluorescence-quenched substrate Ac-Glu-Asp(EDANS)-Lys-Pro-Ale-Leu-Phe^Arg-Leu-Gly-Lys(DABCYL)-Glu-NH2 (where ^ indicates the scissile bond, identified by MS analysis) which can be purchased from Biosyntan (Berlin, Germany). Enzymatic reactions are conducted in 50 mM sodium citrate buffer at pH 5.6 containing 150 mM NaCl and 0.05% (w/v) CHAPS. For”, “volumes were” for “volumes are”, “concentration was” for “concentration is”

[2] = target: T1, Human neutrophil elastase (Homo sapiens, UniProt P08246); assay: HNE inhibitory activity in vitro (fluorescence-quenched substrate); assay type: biochemical
T1 construct: purchased Elastin Products Company, Inc. (EPC, Owensville, USA) SE563
T1 sequence (P08246 30-267): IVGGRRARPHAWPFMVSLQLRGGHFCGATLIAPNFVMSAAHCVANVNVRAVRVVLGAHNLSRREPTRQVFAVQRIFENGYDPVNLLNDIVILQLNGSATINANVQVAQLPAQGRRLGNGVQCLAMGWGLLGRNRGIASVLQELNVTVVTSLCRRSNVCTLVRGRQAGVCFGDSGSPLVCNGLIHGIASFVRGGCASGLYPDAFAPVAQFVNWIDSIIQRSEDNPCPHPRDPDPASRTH
Protocol: Human neutrophil elastase (cat. no. SE563) is purchased from Elastin Products Company, Inc. (EPC, Owensville, USA). The dry powder (purity >95% stated by the supplier) was dissolved in 20 mM sodium acetate buffer, pH 5.0, 50% (v/v) glycerol, and frozen at −80° C. in aliquots.
The fluorescence-quenched substrate (DABCYL-Ser-Glu-Val^Asn-Leu-Asp-Ala-Glu-Phe-EDANS, where ^ indicates the scissile bond, identified by MS analysis) was purchased from Bachem AG (Bubendorf, Switzerland), and kept as a 5 mM stock solution in DMSO at −20° C. All other chemicals were of analytical grade.
Enzymatic reactions were conducted in 100 mM Tris/HCl buffer at pH 7.5, containing 500 mM NaCl, and 0.05% (w/v) CHAPS.
All protein and peptide containing solutions are handled in siliconized tubes (Life Systems Design, Merenschwand, Switzerland).
The compound solutions as well as the enzyme and the substrate solutions are transferred to the 384-well plates (black Cliniplate; cat. no. 95040020 Labsystems Oy, Finland) by means of a CyBi-Well 96-channel pipettor (CyBio AG, Jena, Germany).
as §2

[3] = test system: human chymotrypsin; assay: Inhibition of human chymotrypsin; assay type: biochemical
[4] = test system: Crl:NMRI mice; assay: Anti-inflammatory activity in murine model of allergic contact dermatitis (ACD), oxazolone; assay type: in vivo
Protocol: Method: Crl:NMRI mice were sensitized on the shaved abdomen with 50 μl of 2% oxazolone on day 1 and challenged with 10 μl oxazolone on the inner surface of the right ear on day 8. The unchallenged left ears served as normal controls and dermatitis was evaluated from the difference in auricular weight (taken as a measure of inflammatory swelling) on day 9. The animals were treated topically with 10 μl test compound or the solvent only 30 min after the challenge. The efficacy of the treatment was calculated as the percentage inhibition of inflammatory auricular swelling relative to animals treated with the vehicle alone.

[5] = Table 14, concentration of test compound 10 mM
[6] = Table 14, concentration of test compound 30 mM
[7] = Table 11, read-out: hKallikrein7 IC 50
[8] = Table 11, read-out: human neutrophile elastase IC 50

human kallikrein 7, sequence (P49862 30-253): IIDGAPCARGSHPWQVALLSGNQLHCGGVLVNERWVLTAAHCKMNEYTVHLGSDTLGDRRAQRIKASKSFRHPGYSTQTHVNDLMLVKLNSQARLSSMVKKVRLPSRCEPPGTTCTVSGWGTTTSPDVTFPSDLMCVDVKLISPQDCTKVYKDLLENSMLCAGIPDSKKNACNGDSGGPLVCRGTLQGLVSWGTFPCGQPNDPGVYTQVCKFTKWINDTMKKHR

IC50 [1, 7] [nM] | IC50 [2, 8] [nM] | SMILES | IC50 ([1]; hKallikrein7 IC 50, Table 11) [nM] | IC50 [2] [nM] | further results
 |  | CC(C)CC(=O)N[C@@H](CCC(N)=O)C(=O)N[C@@H]1C(=O)N[C@@H](CC(C)C)C(=O)NC2CC[C@H](O)N(C2=O)[C@@H](Cc2ccccc2)C(=O)N(C)[C@@H](Cc2ccc(O)cc2)C(=O)N[C@@H](C(C)C)C(=O)O[C@@H]1C (some centres unmarked) [formula VIII] |  |  | IC50 ([1]; read-out: IC50 for human kallikrein 7): < 3 nM; IC50 ([2]; read-out: IC50 human neutrophile elastase): ~2.5 nM; IC50 [3]: ~4 nM
 |  | CCC(C)C1NC(=O)C(Cc2ccc(O)cc2)N(C)C(=O)C(C(C)CC)N2C(=O)C(CCC2OCc2ccccc2)NC(=O)C(CC(C)C)NC(=O)C(NC(=O)C(CCC(N)=O)NC(=O)C(C)C)C(C)OC1=O (centres unmarked) [example 9] | 2 | 3 | % Inhibition of inflammatory swelling [4, 5]: 42%; % Inhibition of inflammatory swelling [4, 6]: 38%
 |  | CCOC1CCC2NC(=O)C(CC(C)C)NC(=O)C(NC(=O)C(CCC(N)=O)NC(=O)C(C)C)C(C)OC(=O)C(C(C)CC)NC(=O)C(Cc3ccc(O)cc3)N(C)C(=O)C(C(C)CC)N1C2=O (centres unmarked) [example 10] | 3.5 | 9 | % Inhibition of inflammatory swelling [4, 5]: 22%; % Inhibition of inflammatory swelling [4, 6]: 25%
 |  | CCCCOC1CCC2NC(=O)C(CC(C)C)NC(=O)C(NC(=O)C(CCC(N)=O)NC(=O)C(C)C)C(C)OC(=O)C(C(C)CC)NC(=O)C(Cc3ccc(O)cc3)N(C)C(=O)C(C(C)CC)N1C2=O (centres unmarked) [example 11] | 6 | 12 | 
6 | 55 | CCC(C)C1NC(=O)C(Cc2ccc(O)cc2)N(C)C(=O)C(C(C)CC)N2CCCC(NC(=O)C(CC(C)C)NC(=O)C(NC(=O)C(CCC(N)=O)NC(=O)C(C)C)C(C)OC1=O)C2=O (centres unmarked) [example 4] |  |  | 
 |  | CCC(C)C1NC(=O)C(Cc2ccc(O)cc2)N(C)C(=O)C(C(C)CC)N2C(=O)C(CCC2OC)NC(=O)C(CC(C)C)NC(=O)C(NC(=O)C(CCC(N)=O)NC(=O)C(C)C)C(C)OC1=O (centres unmarked) [example 17] | 3 | 7.5 | 
2.5 | 9 | CCC(C)C1NC(=O)C(Cc2ccc(O)cc2)N(C)C(=O)C(C(C)CC)N2C(=O)C(CCC2O)NC(=O)C(CC(C)C)NC(=O)C(NC(=O)C(CCC#N)NC(=O)C(C)C)C(C)OC1=O (centres unmarked) [example 21] |  |  | 
 |  | CCC(C)C1NC(=O)C(Cc2ccc(O)cc2)N(C)C(=O)C(C(C)CC)N2C(=O)C(CCC2OCCOCCO)NC(=O)C(CC(C)C)NC(=O)C(NC(=O)C(CCC(N)=O)NC(=O)C(C)C)C(C)OC1=O (centres unmarked) [example 15] | 15 | 5 | 
8.5 | 3 | CCC=CCOc1ccc(CC2C(=O)NC(C(C)CC)C(=O)OC(C)C(NC(=O)C(CCC(N)=O)NC(=O)C(C)C)C(=O)NC(CC(C)C)C(=O)NC3CCC(OCCC)N(C3=O)C(C(C)CC)C(=O)N2C)cc1 (centres unmarked) [example 35] |  |  | 
0.2 | 1 | CCC(C)C1NC(=O)C(Cc2ccc(OCc3cc(C)n(C)n3)cc2)N(C)C(=O)C(C(C)CC)N2C(=O)C(CCC2O)NC(=O)C(CC(C)C)NC(=O)C(NC(=O)C(CCC(N)=O)NC(=O)C(C)C)C(C)OC1=O (centres unmarked) [example 43] |  |  | % Inhibition of inflammatory swelling [4, 5]: 42%; % Inhibition of inflammatory swelling [4, 6]: 55%
 |  | CCC(C)[C@@H]1NC(=O)[C@H](Cc2ccc(O)cc2)N(C)C(=O)[C@H](C(C)CC)N2C(=O)C(CC[C@@H]2O)NC(=O)[C@H](CC(C)C)NC(=O)[C@@H](NC(=O)[C@H](CCC(N)=O)NC(=O)c2ccccc2)[C@@H](C)OC1=O (some centres unmarked) [formula XIII] |  | 30 | IC50 [1]: 0.7 nM
